In data set [1] the test system is intestinal epithelial cells. As to conditions: Non Patent Literature 1, cited from earlier work.
Another data set addresses T1, human TRPA1 (Homo sapiens, UniProt O75762).
T1 construct: expressed in transfected cells
Put plainly: TRP channel agonist activity, intracellular Ca2+ imaging, hTRPA1 stably expressing cell line. The data set is classed as cell-based. As to conditions: oxylipin compounds 200 μM and 500 μM, AITC 30 μM, Evaluation 5, FIG. 21. The source says:
DNA fragments containing nucleotide sequences encoding amino acid sequences of human TRPA1 (Accession No. NM_007332.3) (hereinafter referred to also as hTRPA1), human TRPV1 (Accession No. NM_080704.4) (hereinafter referred to also as hTRPV1) and human TRPM8 (Accession No. NM_024080.5) (hereinafter referred to also as hTRPM8) were inserted into pcDNA5/TO vectors (Invitrogen) to construct an hTRPA1 expression vector, an hTRPV1 expression vector and an hTRPM8 expression vector, respectively.
T-REx™_293 cells (Invitrogen) were cultured in Dulbecco's modified Eagle medium (DMEM, Nacalai Tesque Inc.) containing 10% fetal bovine serum (FBS, Cytiva) up to 60 to 70% confluent growth in the wells of a 6 well plate. T-REx™-293 cells were transfected with an hTRPA1 expression vector, an hTRPV1 expression vector or an hTRPM8 expression vector by use of Lipofectamine LTX (Invitrogen) in accordance with a manual.
To Dulbecco's modified Eagle medium (DMEM, Nacalai Tesque Inc.) containing 10% fetal bovine serum (FBS, Cytiva), hygromycin B and blasticidin S were added so as to have a concentration of […] and 5 μg/ml, respectively. In this manner, a drug selection medium was prepared. Twenty-four hours after completion of transfection, the medium of the above cells was exchanged with the drug selection medium, and thereafter, the cells were cultured for 7 days while exchanging the medium with a fresh medium every two days. Living cells were subcultured and regarded as hTRPA1 stably expressing cell line, hTRPV1 stably expressing cell line and hTRPM8 stably expressing cell line, respectively.
The day before assay, cells of the individual expressing cell lines were removed from the medium with a trypsin/EDTA solution and seeded in the wells of a 96-well black-well plate with a clear bottom so as to obtain a cell density of 5×10^4 cells to 6×10^4 cells/well. At this time, tetracycline was added to the medium so as to obtain a concentration of 1 μg/ml to induce expression of hTRPA1, hTRPV1 or hTRPM8. Culture was carried out in an incubator at 37° C. for 24 hours to 48 hours and then cells were washed with PBS. After PBS was removed from the wells, 50 μl of a calcium fluorescent indicator, Calbryte 520 AM (AAT, Bioquest), which was prepared by dissolving CaCl2 dihydrate, HEPES, BSA in an assay buffer HBSS (−) (solution prepared by adding so as to obtain a final concentration of 1 mM, 20 mM and 0.1%, respectively), so as to obtain a concentration of 4 μM, was added, to the wells and incubated at 33° C. for 45 minutes. Thereafter, the cells were again washed with the assay buffer and then 100 μl was allowed to remain in the wells to prepare cells for assay. A solution of a test substance for evaluating TRP channel agonist activity and having a concentration twice as large as the concentration for measurement was prepared within the wells of the 96-well plate and used within 30 minutes after preparation. The cells to be subjected to assay were incubated at 31° C. and a test substance solution (100 μl) was added to the cells for assay by use of Flaxstation3 (Molecular Devices) and fluorescence intensity (excitation wavelength: 490 nm, fluorescence wavelength: 525 nm) was measured every 2 seconds up to 120 seconds. Thirty seconds after initiation of measurement, the (test substance) solution was added to the cells for assay such that a final concentration of the test substance becomes a concentration for measurement.
TRP channel activation ability of a test substance was calculated as a relative value based on the activation ability of 10 μM ionomycin to each of TRP channels, in accordance with the following calculation formula. […]

Data set [2] in a line: Solubility of isolated oxylipin compounds (physicochemical properties). The conditions noted are these: solvents listed for the isolated compound.
Where [3] appears, read: in the presence of 1 μM A-967079 (TRPA1 antagonist).

T1 sequence (O75762 whole entry): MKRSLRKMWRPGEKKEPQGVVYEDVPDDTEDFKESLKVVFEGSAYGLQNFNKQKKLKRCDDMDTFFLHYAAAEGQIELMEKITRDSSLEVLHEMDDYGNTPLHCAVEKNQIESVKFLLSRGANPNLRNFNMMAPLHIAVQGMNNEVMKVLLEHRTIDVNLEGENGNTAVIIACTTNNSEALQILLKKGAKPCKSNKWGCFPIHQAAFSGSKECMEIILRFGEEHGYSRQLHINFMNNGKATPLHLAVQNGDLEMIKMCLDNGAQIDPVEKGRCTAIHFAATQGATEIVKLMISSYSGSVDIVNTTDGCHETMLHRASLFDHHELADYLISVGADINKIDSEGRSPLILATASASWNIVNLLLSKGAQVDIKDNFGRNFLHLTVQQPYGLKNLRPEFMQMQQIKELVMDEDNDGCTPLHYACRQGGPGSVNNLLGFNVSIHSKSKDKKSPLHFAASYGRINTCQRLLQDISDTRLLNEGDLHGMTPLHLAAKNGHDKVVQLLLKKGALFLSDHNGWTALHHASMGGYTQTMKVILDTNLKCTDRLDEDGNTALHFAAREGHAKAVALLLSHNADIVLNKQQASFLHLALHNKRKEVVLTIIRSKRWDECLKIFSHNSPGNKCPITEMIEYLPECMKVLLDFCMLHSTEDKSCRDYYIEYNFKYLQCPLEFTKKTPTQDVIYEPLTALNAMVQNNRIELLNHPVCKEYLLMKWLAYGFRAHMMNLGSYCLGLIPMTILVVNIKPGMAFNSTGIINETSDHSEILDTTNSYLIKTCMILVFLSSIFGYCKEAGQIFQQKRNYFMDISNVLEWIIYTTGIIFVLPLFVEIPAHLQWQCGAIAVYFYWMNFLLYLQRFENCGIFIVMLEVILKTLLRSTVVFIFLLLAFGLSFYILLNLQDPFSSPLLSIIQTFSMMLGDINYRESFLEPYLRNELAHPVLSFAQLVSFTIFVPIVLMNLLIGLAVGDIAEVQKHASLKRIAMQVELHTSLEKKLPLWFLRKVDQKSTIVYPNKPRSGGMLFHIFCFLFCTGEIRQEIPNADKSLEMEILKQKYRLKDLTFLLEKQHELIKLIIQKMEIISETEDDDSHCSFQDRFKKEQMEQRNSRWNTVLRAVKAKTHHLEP

Turning to `CCCCC/C=C/C(=O)CCc1ccc(O)c(OC)c1` [Compound 6-shogaol, 6-shogaol], the “action to promote release of adrenomedullin from the intestinal epithelial cells, with a TRPA1 antagonist” value in data set [1] (TRPA1 antagonist added) was “inhibited by a TRPA1 antagonist”. The “release of adrenomedullin from the intestinal epithelial cells” value in data set [1] is recorded as “have an action to promote release of adrenomedullin from the intestinal epithelial cells”.

On to `CC/C=C/CC(O)/C=C/C=C\CCCCCCCC(=O)O` (stereo not shown) [Compound R1-2, (9Z,11E,15E)-13-hydroxy-9,11,15-octadecatrienoic acid], for which the TRPA1 activation ability entry on human TRPA1 (in the absence of A-967079) is “showed TRPA1 activation ability in the absence of A-967079 in a concentration dependent manner”; on human TRPA1 (setting [3]), “did not show TRPA1 activation ability”. Further, the Solubility result in data set [2] was “ethanol, methanol, acetonitrile, chloroform”.

With `CCC(O)/C=C/C=C\C/C=C\CCCCCCCC(=O)O` (stereo not shown) [Compound R2-2, (9Z,12Z,14E)-16-hydroxy-9,12,14-octadecatrienoic acid], the figures for the TRPA1 activation ability result on human TRPA1 (in the absence of A-967079) and on human TRPA1 (setting [3]) were “showed TRPA1 activation ability in the absence of A-967079 in a concentration dependent manner” and “did not show TRPA1 activation ability”, respectively. Further, in data set [2], the Solubility result is “ethanol, methanol, acetonitrile, ethyl acetate, chloroform”.

`CC/C=C\C/C=C\C=C\C(O)CCCCCCCC(=O)O` (stereo not shown) [Compound R3, (10E,12Z,15Z)-9-hydroxy-10,12,15-octadecatrienoic acid]: the TRPA1 activation ability entry is “showed TRPA1 activation ability in the absence of A-967079 in a concentration dependent manner” on human TRPA1 (in the absence of A-967079) and “did not show TRPA1 activation ability” on human TRPA1 (setting [3]). Moreover, in data set [2], the Solubility entry was “ethanol, methanol, acetonitrile, ethyl acetate, chloroform”.

Take “(7Z,13E,15Z)-12-hydroxy-7,13,15-octadecatrienoic acid and (9Z,13E,15Z)-12-hydroxy-9,13,15-octadecatrienoic acid [Compound R2-1]”: the TRPA1 activation ability entry is given as “showed TRPA1 activation ability in the absence of A-967079 in a concentration dependent manner” on human TRPA1 (in the absence of A-967079) and “did not show TRPA1 activation ability” on human TRPA1 (setting [3]).

These data come from patent US20260144780A1, “COMPOSITION FOR ENHANCING ADRENOMEDULLIN GENE EXPRESSION” (HOUSE WELLNESS FOODS CORPORATION, priority 2020, published 2026).
